Values after ≈ are worked out from the molar mass of the structure shown.
Assays:
[1] = test system: 60 human cancer cell lines; test: cells; assay type: cell-based; details: Homo sapiens; for GI50: mean over NCI 60 cell panel, 48 h drug exposure; for CC50: 60 cell, 48 h, read-out: mean LC50
Experimental: (§1) Compounds were tested for in vitro activity (48 h drug exposure) across 60 human cancer cell lines through the National Cancer Institute (NCI) Developmental Therapies Screening Program (Boyd et al., 1995).

colon sub-panel = test: cells; assay type: cell-based; details: Homo sapiens, SW-620, read-out: mean LC50 in colon sub-panel
Experimental: as §1

renal sub-panel = test: cells; assay type: cell-based; details: Homo sapiens, 60 cell, read-out: mean LC50 in renal sub-panel
Experimental: as §1

HCT 116 colon carcinoma = test: Growth inhibitory assay (MTT, 72 hr); assay type: cell-based; details: Homo sapiens, 72 hr exposure
Experimental: (§2) Compounds were prepared as 10 mM top stocks, dissolved in DMSO, and stored at 4° C., protected from light, for a maximum period of 4 weeks. Human derived cell lines (HCT 116, HT29 colon carcinoma; MCF-7 (ER+), MDA 468 (ER−) breast carcinoma; A549 lung adenocarcinoma) were routinely cultivated at 37° C. in an atmosphere of 5% CO2 in RPMI 1640 medium supplemented with 2 mM L-glutamine and 10% fetal calf serum and subcultured twice weekly to maintain continuous logarithmic growth. Cells were seeded into 96-well microtiter plates at a density of 5×10^3 per well and allowed 24 hr to adhere before drugs were introduced (final concentration 0.1 nM–100 μM, n=8). Serial drug dilutions were prepared in medium immediately prior to each assay. At the time of drug addition and following 72 hr exposure, MTT was added to each well (final concentration 400 µg/mL). Incubation at 37° C. for 4 hr allowed reduction of MTT by mitochondrial dehydrogenase to an insoluble formazan product. Well contents were aspirated and formazan solubilized by addition of DMSO:glycine buffer (pH 10.5) (4:1). Absorbance was measured using an Anthos Labtec systems plate reader at 550 nm, and used as a measure of cell viability; thus cell growth or drug toxicity was determined.

HT29 colon carcinoma = test: Growth inhibitory assay (MTT, 72 hr); assay type: cell-based; details: Homo sapiens, HT-29, 72 hr exposure
Experimental: as §2

[2] = test system: MCF-7 (ER+) breast carcinoma; test: Growth inhibitory assay (MTT, 72 hr); assay type: cell-based; details: Homo sapiens, MCF7, 72 hr exposure
Experimental: as §2

[3] = test system: MDA 468 (ER−) breast carcinoma; test: Growth inhibitory assay (MTT, 72 hr); assay type: cell-based; details: Homo sapiens, 72 hr exposure
Experimental: as §2

[4] = test system: Mycobacterium tuberculosis H37Rv (ATCC 27294); test: Microplate Alamar Blue Assay (MABA), TAACF primary screening; assay type: cell-based; details: lowest concentration effecting a reduction in fluorescence of 90% relative to controls
Description: Compounds were submitted to the Tuberculosis Antimicrobial Acquisition and Coordinating Facility (TAACF) for testing as antimycobacterial drugs.
Compounds were subjected to in vitro evaluation for antimycobacterial activity.
See, for example, Collins et al., 1997.

O=C1CC(SCc2ccccc2)C(O)(c2ccccc2)C(SCc2ccccc2)C1 (stereo not drawn) [Q24, 4-Hydroxy-4-phenyl-3,5-di[(phenyl)methylthio]-cyclohexan-1-one]
GI50 [1]: 3.98 µM

CCOC1(c2nc3ccccc3s2)C=CC(=O)C=C1 [Q18, 4-(Benzothiazol-2-yl)-4-ethoxy-2,5-cyclohexadien-1-one]
melting point: 59 °C

COC1(c2nc3ccc(C)cc3s2)C=CC(=NS(=O)(=O)c2ccc(C)cc2)C=C1 (stereo not drawn) [Q30, N-[4-methoxy-4-(6-methylbenzothiazol-2-yl)cyclohexa-2,5-dienylidene]4-methylbenzenesulphonamide]
CC50 [1]: 19.5 µM | GI50 [1]: 1.2 µM | LC50 (colon sub-panel): 9.92 µM | mean LC50 (renal sub-panel): 10.6 µM

O=C1C=CC(O)(c2cccc3ccccc23)C=C1 [Q09, 4-(Naphth-1-yl)-4-hydroxy-2,5-cyclohexadien-1-one]
CC50 [1]: 25.7 µM | GI50 [1]: 1.82 µM | LC50 (colon sub-panel): 12.2 µM | mean LC50 (renal sub-panel): 17 µM | IC50 (HCT 116 colon carcinoma): 0.42 µM | IC50 (HT29 colon carcinoma): 1.36 µM | IC50 [2]: 0.78 µM | IC50 [3]: 1.77 µM

O=C1C=CC(O)(c2ccccc2)C=C1 [Q11, 4-Phenyl-4-hydroxy-2,5-cyclohexadien-1-one]
CC50 [1]: 21.9 µM | GI50 [1]: 2.29 µM | LC50 (colon sub-panel): 10.6 µM | mean LC50 (renal sub-panel): 16.7 µM | IC50 (HCT 116 colon carcinoma): 2.22 µM | IC50 (HT29 colon carcinoma): 3.63 µM

O=C1C=CC(O)(c2ccc3ccccc3c2)C=C1 [Q08, 4-(Naphth-2-yl)-4-hydroxy-2,5-cyclohexadien-1-one]
CC50 [1]: 11.7 µM | GI50 [1]: 0.81 µM | LC50 (colon sub-panel): 6.58 µM | mean LC50 (renal sub-panel): 4.68 µM | IC50 (HCT 116 colon carcinoma): 0.82 µM | IC50 (HT29 colon carcinoma): 2.5 µM | IC50 [2]: 1.3 µM | IC50 [3]: 1.4 µM

CC(=O)OC1(c2ccccc2)C=CC(=O)C=C1 [Q21, 4-acetoxy-4-phenyl-2,5-cyclohexadien-1-one]
GI50 [1]: 4.79 µM

O=C1CC(Sc2ccccc2)C(O)(c2ccccc2)C(Sc2ccccc2)C1 (stereo not drawn) [Q23, 4-Hydroxy-4-phenyl-3,5-di(phenylthio)-cyclohexan-1-one]
GI50 [1]: 1.82 µM

NC(CCC(=O)NC(CSC1CC(=O)C=CC1(O)c1nc2ccccc2s1)C(=O)NCC(=O)O)C(=O)O (stereo not drawn) [Q28, 4-Benzothiazol-2-yl-5-S-glutathionyl-4-hydroxy-cyclohex-2-enone]
GI50 [1]: 2.19 µM

COC1(c2nc3c(F)cccc3s2)C=CC(=NS(=O)(=O)c2ccc(C)cc2)C=C1 (stereo not drawn) [Q33, N-[4-methoxy-4-(4-fluorobenzothiazol-2-yl)cyclohexa-2,5-dienylidene]-4-methylbenzenesulphonamide]
CC50 [1]: 27.5 µM | GI50 [1]: 2.57 µM | LC50 (colon sub-panel): 26.9 µM | mean LC50 (renal sub-panel): 14.4 µM

O=C1CCC(O)(c2nc3ccccc3s2)CC1 [Q43, 4-(Benzothiazol-2-yl)-4-hydroxycyclohexanone]
CC50 [1]: > 100 µM | GI50 [1]: > 100 µM | LC50 (colon sub-panel): > 100 µM | mean LC50 (renal sub-panel): > 100 µM

COC1(c2nc3ccc(F)cc3s2)C=CC(=NS(=O)(=O)c2ccc(C)cc2)C=C1 (stereo not drawn) [Q32, N-[4-methoxy-4-(6-fluorobenzothiazol-2-yl)cyclohexa-2,5-dienylidene]-4-methylbenzenesulphonamide]
CC50 [1]: 30.2 µM | GI50 [1]: 1.74 µM | LC50 (colon sub-panel): 25.6 µM | mean LC50 (renal sub-panel): 19.1 µM

COC1(c2nc3ccccc3s2)C=CC(=NS(=O)(=O)c2ccc(C)cc2)C=C1 (stereo not drawn) [Q29, N-[4-methoxy-4-(benzothiazol-2-yl)cyclohexa-2,5-dienylidene]-4-methylbenzenesulphonamide]
CC50 [1]: 83.2 µM | GI50 [1]: 15.5 µM | LC50 (colon sub-panel): > 100 µM | mean LC50 (renal sub-panel): > 100 µM

O=C1C=CC(O)(c2nccs2)C=C1 [Q14, 4-(Thiazol-2-yl)-4-hydroxy-2,5-cyclohexadien-1-one]
CC50 [1]: 14.5 µM | GI50 [1]: 1.35 µM | LC50 (colon sub-panel): 6.19 µM | mean LC50 (renal sub-panel): 9.17 µM | IC50 (HCT 116 colon carcinoma): 0.618 µM | IC50 (HT29 colon carcinoma): 0.719 µM | MIC [4]: 3.13 mg/L (≈ 16.2 µM)

O=C1C=CC(O)(c2cnc3ccccc3c2)C=C1 [Q10, 4-(Quinolin-3-yl)-4-hydroxy-2,5-cyclohexadien-1-one]
CC50 [1]: 15.8 µM | GI50 [1]: 1.07 µM | LC50 (colon sub-panel): 10.2 µM | mean LC50 (renal sub-panel): 9.66 µM | IC50 (HCT 116 colon carcinoma): 0.72 µM | IC50 (HT29 colon carcinoma): 0.97 µM | IC50 [2]: 0.77 µM | IC50 [3]: 1.7 µM | MIC [4]: 3.13 mg/L (≈ 13.2 µM)

CCSC1CC(=O)CC(SCC)C1(O)c1ccccc1 (stereo not drawn) [Q22, 3,5-Di(ethylthio)-4-hydroxy-4-phenylcyclohexan-1-one]
GI50 [1]: 12.6 µM

COC1(c2ccccc2)C=CC(=O)C=C1 [Q16, 4-Methoxy-4-phenyl-2,5-cyclohexadien-1-one]
GI50 [1]: 25.4 µM

O=C1C=CC(O)(c2cc3ccccc3s2)c2ccccc21 (stereo not drawn) [Q46, 4-Benzothiophen-2-yl-4-hydroxy-4H-naphth-1-one]
CC50 [1]: 70.8 µM | GI50 [1]: 2.29 µM | LC50 (colon sub-panel): > 100 µM | mean LC50 (renal sub-panel): > 100 µM

O=C1CC(Sc2ccccc2)C(O)(c2nc3ccccc3s2)C(Sc2ccccc2)C1 (stereo not drawn) [Q25]
GI50 [1]: 0.59 µM | MIC [4]: 1.56 mg/L (≈ 3.36 µM)

O=C1C=CC(O)(c2cc3ccccc3o2)c2ccccc21 (stereo not drawn) [Q47, 4-(Benzofuran-2-yl)-4-hydroxy-4H-naphth-1-one]
CC50 [1]: 7.76 µM | GI50 [1]: 0.74 µM | LC50 (colon sub-panel): 7.76 µM | mean LC50 (renal sub-panel): 6.48 µM

O=C1C=CC(O)(c2ccccn2)C=C1 [Q12, 4-(Pyridin-2-yl)-4-hydroxy-2,5-cyclohexadien-1-one]
CC50 [1]: 20.4 µM | GI50 [1]: 1.91 µM | LC50 (colon sub-panel): 6.9 µM | mean LC50 (renal sub-panel): 11.3 µM | IC50 (HCT 116 colon carcinoma): 0.547 µM | IC50 (HT29 colon carcinoma): 0.46 µM | IC50 [2]: 0.72 µM | IC50 [3]: 1.5 µM | MIC [4]: 6.25 mg/L (≈ 33.4 µM)

O=C1C=CC(O)(c2nc3ccccc3s2)C(Cl)=C1 (stereo not drawn) [Q06, 4-(Benzothiazol-2-yl)-3-chloro-4-hydroxy-2,5-cyclohexadien-1-one]
CC50 [1]: 6.31 µM | GI50 [1]: 0.46 µM | LC50 (colon sub-panel): 2.31 µM | mean LC50 (renal sub-panel): 1.8 µM | IC50 (HCT 116 colon carcinoma): 14.9 µM | IC50 (HT29 colon carcinoma): 26.3 µM

CC1=CC(O)(c2nc3ccccc3s2)C=C(C)C1=O [Q44, 4-(benzothiazol-2-yl)-4-hydroxy-2,6-dimethylcyclohexa-2,5-dien-1-one]
CC50 [1]: > 100 µM | GI50 [1]: 38.2 µM | LC50 (colon sub-panel): > 100 µM | mean LC50 (renal sub-panel): > 100 µM

O=C1/C(=C\c2ccccc2)CC(O)(c2nc3ccccc3s2)C/C1=C/c1ccccc1 (stereo not drawn) [Q45, 4-(benzothiazol-2-yl)-2,6-bis(phenylmethinyl)-4-hydroxycyclohexanone]
CC50 [1]: 47.9 µM | GI50 [1]: 2.69 µM | LC50 (colon sub-panel): 17.4 µM | mean LC50 (renal sub-panel): 37.2 µM

COc1ccc2nc(C3(OC)C=CC(=NS(=O)(=O)c4ccc(C)cc4)C=C3)sc2c1 (stereo not drawn) [Q31, N-[4-methoxy-4-(6-methoxybenzothiazol-2-yl)cyclohexa-2,5-dienylidene]-4-methylbenzenesulphonamide]
CC50 [1]: 18.6 µM | GI50 [1]: 1.91 µM | LC50 (colon sub-panel): 13.2 µM | mean LC50 (renal sub-panel): 11.2 µM

O=C1C=CC(O)(c2cccs2)C=C1 [Q13, 4-(Thiophen-2-yl)-4-hydroxy-2,5-cyclohexadien-1-one]
CC50 [1]: 30.9 µM | GI50 [1]: 1.78 µM | LC50 (colon sub-panel): 32.5 µM | mean LC50 (renal sub-panel): 14.4 µM | IC50 (HCT 116 colon carcinoma): 0.663 µM | IC50 (HT29 colon carcinoma): 1.25 µM | IC50 [2]: 0.569 µM | IC50 [3]: 0.719 µM | MIC [4]: 6.25 mg/L (≈ 32.5 µM)

From patent US7144893B2, “4-aryl quinols and analogs thereof as therapeutic agents” (Cancer Research Technology Limited, priority 2001, dated 2006)
